Experiments:
Format in all cases: cell-based
[1] = test system: BT-549; test: NCI 60-cell line growth inhibition assay: BT-549; conditions: Homo sapiens, Breast, read-out: GI50
[2] = test system: HS 578T; test: NCI 60-cell line growth inhibition assay: HS 578T; conditions: Homo sapiens; Breast, HS 578T; read-out: GI50
[3] = test system: MCF7; test: NCI 60-cell line growth inhibition assay: MCF7; conditions: Homo sapiens, Breast, read-out: GI50
[4] = test system: MDA-MB-231/ATCC; test: NCI 60-cell line growth inhibition assay: MDA-MB-231/ATCC; conditions: Homo sapiens; Breast, MDA-MB-231/ATCC; read-out: GI50
[5] = test system: MDA-MB-435; test: NCI 60-cell line growth inhibition assay: MDA-MB-435; conditions: Homo sapiens, Breast, read-out: GI50
[6] = test system: NCI/ADR-RES; conditions: Homo sapiens, Breast, read-out: GI50
[7] = test system: SF-295; test: NCI 60-cell line growth inhibition assay: SF-295; conditions: Homo sapiens, CNS, read-out: GI50
[8] = test system: SF-539; test: NCI 60-cell line growth inhibition assay: SF-539; conditions: Homo sapiens; CNS, SF-539; read-out: GI50
[9] = test system: SNB-19; test: NCI 60-cell line growth inhibition assay: SNB-19; conditions: Homo sapiens, CNS, read-out: GI50
[10] = test system: SNB-75; test: NCI 60-cell line growth inhibition assay: SNB-75; conditions: Homo sapiens, CNS, read-out: GI50
[11] = test system: U251; test: NCI 60-cell line growth inhibition assay: U251; conditions: Homo sapiens, U-251; CNS, U251; read-out: GI50
[12] = test system: COLO 205; test: NCI 60-cell line growth inhibition assay: COLO 205; conditions: Homo sapiens, Colon, read-out: GI50
[13] = test system: HCC-2998; test: NCI 60-cell line growth inhibition assay: HCC-2998; conditions: Homo sapiens; Colon, HCC-2998; read-out: GI50
[14] = test system: HCT-116; test: NCI 60-cell line growth inhibition assay: HCT-116; conditions: Homo sapiens, Colon, read-out: GI50
[15] = test system: HCT-15; test: NCI 60-cell line growth inhibition assay: HCT-15; conditions: Homo sapiens, Colon, read-out: GI50
[16] = test system: HT29; test: NCI 60-cell line growth inhibition assay: HT29; conditions: Homo sapiens, HT-29; Colon, HT29; read-out: GI50
[17] = test system: KM12; test: NCI 60-cell line growth inhibition assay: KM12; conditions: Homo sapiens, Colon, read-out: GI50
[18] = test system: SW-620; test: NCI 60-cell line growth inhibition assay: SW-620; conditions: Homo sapiens, Colon, read-out: GI50
[19] = test system: K-562; test: NCI 60-cell line growth inhibition assay: K-562; conditions: Homo sapiens, K562; Leukemia, K-562; read-out: GI50
[20] = test system: MOLT-4; test: NCI 60-cell line growth inhibition assay: MOLT-4; conditions: Homo sapiens, Leukemia, read-out: GI50
[21] = test system: LOX IMVI; test: NCI 60-cell line growth inhibition assay: LOX IMVI; conditions: Homo sapiens, Melanoma, read-out: GI50
[22] = test system: M14; test: NCI 60-cell line growth inhibition assay: M14; conditions: Homo sapiens, Melanoma, read-out: GI50
[23] = test system: MALME-3M; test: NCI 60-cell line growth inhibition assay: MALME-3M; conditions: Homo sapiens; Melanoma, MALME-3M; read-out: GI50
[24] = test system: SK-MEL-2; test: NCI 60-cell line growth inhibition assay: SK-MEL-2; conditions: Homo sapiens, Melanoma, read-out: GI50
[25] = test system: SK-MEL-5; test: NCI 60-cell line growth inhibition assay: SK-MEL-5; conditions: Homo sapiens, Melanoma, read-out: GI50
[26] = test system: UACC-257; test: NCI 60-cell line growth inhibition assay: UACC-257; conditions: Homo sapiens, Melanoma, read-out: GI50
[27] = test system: UACC-62; test: NCI 60-cell line growth inhibition assay: UACC-62; conditions: Homo sapiens, Melanoma, read-out: GI50
[28] = test system: A549/ATCC; test: NCI 60-cell line growth inhibition assay: A549/ATCC; conditions: Homo sapiens; Non-Small Cell Lung, A549/ATCC; read-out: GI50
[29] = test system: EKVX; test: NCI 60-cell line growth inhibition assay: EKVX; conditions: Homo sapiens, Non-Small Cell Lung, read-out: GI50
[30] = test system: HOP-62; test: NCI 60-cell line growth inhibition assay: HOP-62; conditions: Homo sapiens, Non-Small Cell Lung, read-out: GI50
[31] = test system: HOP-92; test: NCI 60-cell line growth inhibition assay: HOP-92; conditions: Homo sapiens, Non-Small Cell Lung, read-out: GI50
[32] = test system: NCI-H23; conditions: Homo sapiens, Non-Small Cell Lung, read-out: GI50
[33] = test system: NCI-H460; conditions: Homo sapiens, Non-Small Cell Lung, read-out: GI50
[34] = test system: NCI-H522; conditions: Homo sapiens, Non-Small Cell Lung, read-out: GI50
[35] = test system: OVCAR-3; test: NCI 60-cell line growth inhibition assay: OVCAR-3; conditions: Homo sapiens, Ovarian, read-out: GI50
[36] = test system: OVCAR-4; test: NCI 60-cell line growth inhibition assay: OVCAR-4; conditions: Homo sapiens, Ovarian, read-out: GI50
[37] = test system: OVCAR-5; test: NCI 60-cell line growth inhibition assay: OVCAR-5; conditions: Homo sapiens, Ovarian, read-out: GI50
[38] = test system: OVCAR-8; test: NCI 60-cell line growth inhibition assay: OVCAR-8; conditions: Homo sapiens, Ovarian, read-out: GI50
[39] = test system: SK-OV-3; test: NCI 60-cell line growth inhibition assay: SK-OV-3; conditions: Homo sapiens, Ovarian, read-out: GI50
[40] = test system: DU-145; test: NCI 60-cell line growth inhibition assay: DU-145; conditions: Homo sapiens, Prostate, read-out: GI50
[41] = test system: PC-3; test: NCI 60-cell line growth inhibition assay: PC-3; conditions: Homo sapiens, Prostate, read-out: GI50
[42] = test system: 786-0; test: NCI 60-cell line growth inhibition assay: 786-0; conditions: Homo sapiens, Renal, read-out: GI50
[43] = test system: A498; test: NCI 60-cell line growth inhibition assay: A498; conditions: Homo sapiens, Renal
Description: The following data in Table 4 summarize the growth inhibition properties of several compounds of the present invention against 60-human transformed cell lines.

[44] = test system: ACHN; test: NCI 60-cell line growth inhibition assay: ACHN; conditions: Homo sapiens, Renal, read-out: GI50
[45] = test system: CAKI-1; test: NCI 60-cell line growth inhibition assay: CAKI-1; conditions: Homo sapiens, Renal, read-out: GI50
[46] = test system: RXF 393; test: NCI 60-cell line growth inhibition assay: RXF 393; conditions: Homo sapiens, Renal, read-out: GI50
[47] = test system: SN12C; test: NCI 60-cell line growth inhibition assay: SN12C; conditions: Homo sapiens, Renal, read-out: GI50
[48] = test system: TK-10; test: NCI 60-cell line growth inhibition assay: TK-10; conditions: Homo sapiens, Renal, read-out: GI50
[49] = test system: UO-31; test: NCI 60-cell line growth inhibition assay: UO-31; conditions: Homo sapiens, Renal, read-out: GI50

Which results are given for `C#Cc1ccc2[nH]c3c(c2c1)CCN1C[C@H](C[C@@](O)(CC)C1)C[C@]3(C(=O)OC)c1cc2c(cc1OC)N(C)[C@H]1[C@@](O)(C(=O)OC)[C@H](OC(C)=O)[C@]3(CC)C=CCN4CC[C@]21[C@@H]43` [Example 17, 12′-ethynylvinblastine]?
GI50 [1]: < 10 nM; GI50 [2]: < 10 nM; GI50 [3]: < 10 nM; GI50 [4]: < 10 nM; GI50 [5]: < 10 nM; GI50 [6]: 2090 nM; GI50 [7]: < 10 nM; GI50 [8]: < 10 nM; GI50 [9]: < 10 nM; GI50 [10]: < 10 nM; GI50 [11]: < 10 nM; GI50 [12]: < 10 nM; GI50 [13]: < 10 nM; GI50 [14]: < 10 nM; GI50 [15]: 44 nM; GI50 [16]: < 10 nM; GI50 [17]: < 10 nM; GI50 [18]: < 10 nM; GI50 [19]: 53.1 nM; GI50 [20]: < 10 nM; GI50 [21]: < 10 nM; GI50 [22]: < 10 nM; GI50 [23]: < 10 nM; GI50 [24]: < 10 nM; GI50 [25]: < 10 nM; GI50 [26]: 22400 nM; GI50 [27]: < 10 nM; GI50 [28]: 16.9 nM; GI50 [29]: < 10 nM; GI50 [30]: < 10 nM; GI50 [31]: 160 nM; GI50 [32]: < 10 nM; GI50 [33]: < 10 nM; GI50 [34]: < 10 nM; GI50 [35]: < 10 nM; GI50 [36]: 15.3 nM; GI50 [37]: < 10 nM; GI50 [38]: < 10 nM; GI50 [39]: < 10 nM; GI50 [40]: < 10 nM; GI50 [41]: < 10 nM; GI50 [42]: < 10 nM; GI50 [43]: < 10 nM; GI50 [44]: < 10 nM; GI50 [45]: 73.4 nM; GI50 [46]: < 10 nM; GI50 [47]: < 10 nM; GI50 [48]: < 10 nM; GI50 [49]: 98.6 nM

Reference: patent publication US7745619B2, “Vinca derivatives” (priority 2003, dated 2010)
